The record followed here is US11066421B1, “Synthetic cinchona alkaloids against cancer” (Ares Pharmaceuticals, LLC, priority 2021, dated 2021).

One assay concerns PC-3. Put plainly: Confocal laser scanning microscopy apoptosis, PC-3. The following applies: 100 nM, 48 hours. It counts as cell-based, human. How it is done: Confocal Laser Scanning Microscopy. Cells were treated with cinchona alkaloids or PBS in culture medium for 48 hours. After 48 hr of culture, cells were co-stained with a rabbit polyclonal antitubulin antibody (Green Fluorescence) and the DNA-specific dye Toto-3 (Blue Fluorescence) and examined by laser scanning confocal microscopy using a Bio-Rad MRC-1024 Laser Scanning Confocal Microscope equipped with a Kr/Ar laser (Bio-Rad, Hercules, Calif., USA) mounted on a Nikon Eclipse E800 upright microscope with high numerical aperture objectives (Nikon, Melville, N.Y., USA), as described (F. M. Uckun, et al., 2010, Proc. Natl. Acad. Sci. USA, 107: 2902-7; F. M. Uckun., et al., 2010, British Journal of Haematology, 149: 508-17; F. M. Uckun, et al., 2013, Blood. 121:4348-54; F. M. Uckun et al., 2010, Proc. Natl Acad. Sci. USA 107:16852-57; F. M. Uckun et al., 2012, Proc. Natl Acad. Sci. USA 109:18072-77). Cell lines. BT-20 (ATCC HTB-19), a triple negative breast cancer cell line, PC-3 (ATCC CRL-1435) a CRPC cell line (small cell endocrine carcinoma) derived from a Stage IV prostate cancer patient with bone metastases were obtained from American Type Culture Collection (ATCC) (Manassas, Va.). […] Cells were washed in PBS and counterstained with the DNA-specific dye TOTO-3 (blue fluorescence) (Molecular Probes Inc., Eugene, Oreg.) for 10 min at a dilution of 1:1000. […]

The subject of assay [1] is PC3 human prostate cancer cells. Put plainly: CB.17 SCID mouse xenograft model of human prostate cancer. The note with it: 2 mg/kg i.p. twice daily, 5 days on 2 days off. It is filed as in vivo. How it is done: Cell Lines. Human prostate cancer cell line PC3 (ATCC CRL-1435) was obtained from American Type Culture Collection (Rockville, Md.) and maintained as a continuous cell line in DMEM supplemented with 10% fetal calf serum (FCS), 4 mm glutamine, 100 units/ml penicillin G, and […] streptomycin sulfate. All of the tissue culture reagents were obtained from Life Technologies, Inc. Inc. (Gaithersburg, Md.). Mice. Female CB.17 SCID mice were obtained from Taconic (Germantown, N.Y.) and housed in a specific-pathogen-free room located in a secure indoor facility with controlled temperature, humidity, and noise levels. Mice were housed in micro-isolator cages and fed with autoclaved rodent chow. Water was also autoclaved and supplemented with trimethoprim/sulfamethoxazol 3 days a week. The animal protocol used in this study was approved by the Drug Discovery Enterprises Animal Care and Use Committee (IACUC), and all of the animal care procedures conformed to the Guide for the Care and Use of Laboratory Animals (National Research Council, National Academy Press, Washington D.C. 1996). […] The size of subcutaneous tumors were measured on day 16 and day 18 to evaluate the ability of AP-8 to inhibit tumor growth in this SCID mouse xenograft model of prostate cancer. Tumor volumes were calculated using the formula for the volume of a prolate spheroid, V=4/3×3.14×length/2×width/2×depth/2.
(In general: In xenograft studies the graft and the host belong to different species.)

Entries after “also recorded” stand apart in the source; their conditions may differ.

As for “2,4,6-Tri (9-O-dihydrocinchoninyl)pyrimidine [AP-5]”, the “signs of apoptosis by confocal imaging” value in the assay with PC-3 is given as “virtually all of the BT-20 or PC-3 cells treated with AP-5 showed signs of advanced apoptosis; also recorded: virtually all of the PC-3 cells treated with AP-5 showed signs of advanced apoptosis”. Take `CCC1CN2CCC1CC2C(Oc1cc(OC(c2ccnc3ccc(OC)cc23)C2CC3CCN2CC3CC)nc(OC(c2ccnc3ccc(OC)cc23)C2CC3CCN2CC3CC)n1)c1ccnc2ccc(OC)cc12` (stereo not drawn) [AP-8, 2,4,6-Tri (9-O-dihydroquinidinyl)pyrimidine]: the tumor progression entry in assay [1] is given as “significantly slowed down the tumor progression”. The average tumor volume in assay [1] (day 18, from day 7) amounted to 45.1±7.8 mm^3.
